Source: ChEMBL document CHEMBL4732069, “Singly and doubly modified analogues of C20-epi-salinomycin: A new group of antiparasitic agents against Trypanosoma brucei” (Eur J Med Chem, 2021)
Activity calls are given as the source filed them. The calls are words filed in the database; no cut-off is given here.

Columns and labels:
[1] = Cytotoxicity against human HL-60 cells by resazurin dye based fluorescence assay; assay type: cell-based
[2] = test system: Trypanosoma brucei brucei; experiment: Antitrypanosomal activity against Trypanosoma brucei brucei S427 by resazurin dye based fluorescence assay; assay type: functional
[3] = Selectivity index, ratio of GI50 for human HL-60 cells to GI50 for antitrypanosomal activity against Trypanosoma brucei brucei S427; assay type: toxicity; settings: read-out: RatioGI50
[4] = test system: Trypanosoma brucei brucei; experiment: Antitrypanosomal activity against Trypanosoma brucei brucei assessed as cell swelling; assay type: functional, organism-based

GI50 [2] [µM]	SMILES	GI50 [1] [µM]	selectivity ratio [3]	Activity [4]
0.22	CC[C@@H](C(=O)[C@@H](C)[C@@H](O)[C@H](C)[C@@H]1O[C@@H]([C@@H](CC)C(=O)O)CC[C@@H]1C)[C@H]1O[C@]2(C=C[C@H](OC(=O)Oc3ccccc3)[C@]3(CC[C@@](C)([C@H]4CC[C@](O)(CC)[C@H](C)O4)O3)O2)[C@H](C)C[C@@H]1C	23.4	106	–
0.47	CC[C@@H](C(=O)[C@@H](C)[C@@H](O)[C@H](C)[C@@H]1O[C@@H]([C@@H](CC)C(=O)ONC(=O)c2ccccc2)CC[C@@H]1C)[C@H]1O[C@]2(C=C[C@H](OC(C)=O)[C@]3(CC[C@@](C)([C@H]4CC[C@](O)(CC)[C@H](C)O4)O3)O2)[C@H](C)C[C@@H]1C	19.1	18.2	–
13.8	C#CCNC(=O)[C@H](CC)[C@H]1CC[C@H](C)[C@H]([C@@H](C)[C@H](O)[C@H](C)C(=O)[C@H](CC)[C@H]2O[C@]3(C=C[C@H](OC(=O)OCC)[C@]4(CC[C@@](C)([C@H]5CC[C@](O)(CC)[C@H](C)O5)O4)O3)[C@H](C)C[C@@H]2C)O1	61.8	106	–
3.15	CC[C@@H](C(=O)[C@@H](C)[C@@H](O)[C@H](C)[C@@H]1O[C@@H]([C@@H](CC)C(=O)O)CC[C@@H]1C)[C@H]1O[C@]2(C=C[C@H](OC(=O)Nc3ccccc3)[C@]3(CC[C@@](C)([C@H]4CC[C@](O)(CC)[C@H](C)O4)O3)O2)[C@H](C)C[C@@H]1C	57.2	18.2	–
0.058	Cc1ccc(C(=O)Nc2ccc(S(=O)(=O)O)c3cc(S(=O)(=O)O)cc(S(=O)(=O)O)c23)cc1NC(=O)c1cccc(NC(=O)Nc2cccc(C(=O)Nc3cc(C(=O)Nc4ccc(S(=O)(=O)O)c5cc(S(=O)(=O)O)cc(S(=O)(=O)O)c45)ccc3C)c2)c1 [SURAMIN]	> 100	> 1720	–
0.036	CC[C@@H](C(=O)[C@@H](C)[C@@H](O)[C@H](C)[C@@H]1O[C@@H]([C@@H](CC)C(=O)O)CC[C@@H]1C)[C@H]1O[C@]2(C=C[C@H](OC(=O)C(C)C)[C@]3(CC[C@@](C)([C@H]4CC[C@](O)(CC)[C@H](C)O4)O3)O2)[C@H](C)C[C@@H]1C	21.6	90	–
2.81	CC[C@@H](C(=O)[C@@H](C)[C@@H](O)[C@H](C)[C@@H]1O[C@@H]([C@@H](CC)C(=O)ONC(=O)c2ccccc2O)CC[C@@H]1C)[C@H]1O[C@]2(C=C[C@H](O)[C@]3(CC[C@@](C)([C@H]4CC[C@](O)(CC)[C@H](C)O4)O3)O2)[C@H](C)C[C@@H]1C	33.2	11.8	–
20.9	C#CCNC(=O)[C@H](CC)[C@H]1CC[C@H](C)[C@H]([C@@H](C)[C@H](O)[C@H](C)C(=O)[C@H](CC)[C@H]2O[C@]3(C=C[C@H](OC(C)=O)[C@]4(CC[C@@](C)([C@H]5CC[C@](O)(CC)[C@H](C)O5)O4)O3)[C@H](C)C[C@@H]2C)O1	39.8	2	–
0.2	CCCCCCCCNC(=O)O[C@H]1C=C[C@]2(O[C@H]([C@@H](CC)C(=O)[C@@H](C)[C@@H](O)[C@H](C)[C@@H]3O[C@@H]([C@@H](CC)C(=O)O)CC[C@@H]3C)[C@@H](C)C[C@H]2C)O[C@@]12CC[C@@](C)([C@H]1CC[C@](O)(CC)[C@H](C)O1)O2	24.6	123	–
22.4	C#CCOC(=O)[C@H](CC)[C@H]1CC[C@H](C)[C@H]([C@@H](C)[C@H](O)[C@H](C)C(=O)[C@H](CC)[C@H]2O[C@]3(C=C[C@H](OC(C)=O)[C@]4(CC[C@@](C)([C@H]5CC[C@](O)(CC)[C@H](C)O5)O4)O3)[C@H](C)C[C@@H]2C)O1	> 100	123	–
0.32	CC[C@@H](C(=O)[C@@H](C)[C@@H](O)[C@H](C)[C@@H]1O[C@@H]([C@@H](CC)C(=O)O)CC[C@@H]1C)[C@H]1O[C@]2(C=C[C@H](OC(=O)NC(C)(C)C)[C@]3(CC[C@@](C)([C@H]4CC[C@](O)(CC)[C@H](C)O4)O3)O2)[C@H](C)C[C@@H]1C	> 100	> 312	–
0.24	CC[C@@H](C(=O)[C@@H](C)[C@@H](O)[C@H](C)[C@@H]1O[C@@H]([C@@H](CC)C(=O)O)CC[C@@H]1C)[C@H]1O[C@]2(C=C[C@H](OC(=O)C34CC5CC(CC(C5)C3)C4)[C@]3(CC[C@@](C)([C@H]4CC[C@](O)(CC)[C@H](C)O4)O3)O2)[C@H](C)C[C@@H]1C	18.7	55	–
21.6	CC[C@@H](C(=O)[C@@H](C)[C@@H](O)[C@H](C)[C@@H]1O[C@@H]([C@@H](CC)C(=O)O)CC[C@@H]1C)[C@H]1O[C@]2(C=C[C@H](OC(=O)OCC(C)(C)C)[C@]3(CC[C@@](C)([C@H]4CC[C@](O)(CC)[C@H](C)O4)O3)O2)[C@H](C)C[C@@H]1C	42.4	2	–
0.027	CCNC(=O)N(CC)C(=O)O[C@H]1C=C[C@]2(O[C@H]([C@@H](CC)C(=O)[C@@H](C)[C@@H](O)[C@H](C)[C@@H]3O[C@@H]([C@@H](CC)C(=O)O)CC[C@@H]3C)[C@@H](C)C[C@H]2C)O[C@@]12CC[C@@](C)([C@H]1CC[C@](O)(CC)[C@H](C)O1)O2	9.54	353	Active
15	C#CCOC(=O)[C@H](CC)[C@H]1CC[C@H](C)[C@H]([C@@H](C)[C@H](O)[C@H](C)C(=O)[C@H](CC)[C@H]2O[C@]3(C=C[C@H](OC(=O)OCC)[C@]4(CC[C@@](C)([C@H]5CC[C@](O)(CC)[C@H](C)O5)O4)O3)[C@H](C)C[C@@H]2C)O1	> 100	> 312	–
26.9	C#CCOC(=O)[C@H](CC)[C@H]1CC[C@H](C)[C@H]([C@@H](C)[C@H](O)[C@H](C)C(=O)[C@H](CC)[C@H]2O[C@]3(C=C[C@H](O)[C@]4(CC[C@@](C)([C@H]5CC[C@](O)(CC)[C@H](C)O5)O4)O3)[C@H](C)C[C@@H]2C)O1	> 100	> 3.7	–
0.59	CC[C@@H](C(=O)[C@@H](C)[C@@H](O)[C@H](C)[C@@H]1O[C@@H]([C@@H](CC)C(=O)ONC(=O)c2ccccc2O)CC[C@@H]1C)[C@H]1O[C@]2(C=C[C@H](OC(C)=O)[C@]3(CC[C@@](C)([C@H]4CC[C@](O)(CC)[C@H](C)O4)O3)O2)[C@H](C)C[C@@H]1C	203	353	–
2.48	CCCCCCCCCC(=O)O[C@H]1C=C[C@]2(O[C@H]([C@@H](CC)C(=O)[C@@H](C)[C@@H](O)[C@H](C)[C@@H]3O[C@@H]([C@@H](CC)C(=O)O)CC[C@@H]3C)[C@@H](C)C[C@H]2C)O[C@@]12CC[C@@](C)([C@H]1CC[C@](O)(CC)[C@H](C)O1)O2	5.97	165	Active
0.32	CC[C@@H](C(=O)[C@@H](C)[C@@H](O)[C@H](C)[C@@H]1O[C@@H]([C@@H](CC)C(=O)ONC(=O)c2ccccc2)CC[C@@H]1C)[C@H]1O[C@]2(C=C[C@H](O)[C@]3(CC[C@@](C)([C@H]4CC[C@](O)(CC)[C@H](C)O4)O3)O2)[C@H](C)C[C@@H]1C	9.54	29.8	–
0.34	CC[C@@H](C(=O)[C@@H](C)[C@@H](O)[C@H](C)[C@@H]1O[C@@H]([C@@H](CC)C(=O)O)CC[C@@H]1C)[C@H]1O[C@]2(C=C[C@H](OC(=O)c3ccccc3)[C@]3(CC[C@@](C)([C@H]4CC[C@](O)(CC)[C@H](C)O4)O3)O2)[C@H](C)C[C@@H]1C	13.5	67.5	–
2.97	C#CCNC(=O)[C@H](CC)[C@H]1CC[C@H](C)[C@H]([C@@H](C)[C@H](O)[C@H](C)C(=O)[C@H](CC)[C@H]2O[C@]3(C=C[C@H](O)[C@]4(CC[C@@](C)([C@H]5CC[C@](O)(CC)[C@H](C)O5)O4)O3)[C@H](C)C[C@@H]2C)O1	44.8	15.1	–

SMILES	GI50 [2] [µM]	GI50 [1] [µM]	selectivity ratio [3]	Activity [4]
CC[C@@H](C(=O)[C@@H](C)[C@@H](O)[C@H](C)[C@@H]1O[C@@H]([C@@H](CC)C(=O)O)CC[C@@H]1C)[C@H]1O[C@]2(C=C[C@@H](O)[C@]3(CC[C@@](C)([C@H]4CC[C@](O)(CC)[C@H](C)O4)O3)O2)[C@H](C)C[C@@H]1C [SALINOMYCIN]	0.3	50.5	168	Active
CCOC(=O)O[C@H]1C=C[C@]2(O[C@H]([C@@H](CC)C(=O)[C@@H](C)[C@@H](O)[C@H](C)[C@@H]3O[C@@H]([C@@H](CC)C(=O)O)CC[C@@H]3C)[C@@H](C)C[C@H]2C)O[C@@]12CC[C@@](C)([C@H]1CC[C@](O)(CC)[C@H](C)O1)O2	0.2	12.6	293	Active
CC[C@@H](C(=O)[C@@H](C)[C@@H](O)[C@H](C)[C@@H]1O[C@@H]([C@@H](CC)C(=O)O)CC[C@@H]1C)[C@H]1O[C@]2(C=C[C@H](OC(C)=O)[C@]3(CC[C@@](C)([C@H]4CC[C@](O)(CC)[C@H](C)O4)O3)O2)[C@H](C)C[C@@H]1C	0.043	52.5	21.2	–
CC[C@@H](C(=O)[C@@H](C)[C@@H](O)[C@H](C)[C@@H]1O[C@@H]([C@@H](CC)C(=O)O)CC[C@@H]1C)[C@H]1O[C@]2(C=C[C@H](O)[C@]3(CC[C@@](C)([C@H]4CC[C@](O)(CC)[C@H](C)O4)O3)O2)[C@H](C)C[C@@H]1C	8.49	393	4.6	inactive
